{"source": "patent US20170196789A1", "about": "“REDUCTION OF ORAL AND EPIDERMAL MALODOR IN HUMANS AND ANIMALS” (priority 2014, published 2017)", "origin": "cited, not measured here", "key": {"[1]": {"conditions": "chlorhexidine exposure, current animal research"}, "[2]": {"conditions": "in vivo"}, "[3]": {"conditions": "after adhesion to the mucus membrane surface"}}}
{"smiles": "[H]/N=C(\\N/C(=N/[H])NCCCCCCNC(=N)NC(=N)Nc1ccc(Cl)cc1)Nc1ccc(Cl)cc1", "note": "[chlorhexidine, Chlorhexidine]", "values": [{"measurement": "toxic and/or cancerous effects in animals", "setting": "[1]", "value": "does not demonstrate any evidence of toxic and/or cancerous effects"}, {"measurement": "absorption through the digestive system", "setting": "[2]", "value": "minimal"}, {"measurement": "share of the total consumed amount remaining in the oral cavity", "setting": "[3]", "value": "Approximately thirty"}]}
